Reference: patent publication US20050142537A1, “System and method for rapid detection of metabolic deviations of a biological sample” (priority 2003, published 2005)

Tested on: E. coli
Assay: Impedance-based rapid detection of metabolic deviations (sensitivity testing) of a biological sample containing E. coli
Assay type: cell-based
Description: There is shown in FIG. 1, system 10 for rapid detection of metabolic deviations of a biological sample of this invention. System 10 includes control chamber 12 which receives biological sample 14 via fluidic channel 15. Control chamber 12 also includes spaced electrodes 16 and 18 which are used to measure the impedance of biological sample 14 disposed in control chamber 12, as discussed in further detail below. Biological sample 14 may be blood, urine, sputum, feces, spinal fluid, food, water, a solution containing one or more microbial organisms, or any other biological sample known to those skilled in the art. The microbial organisms in biological sample 14 may include any biological cell, such as Escherichia coli, Staphylococcus aureus, Enterococcus faecalis, Streptococcus pneumoniae, Neisseria gonorrhoeae, Mycobacterium tuberculosis, Saccharomyces cerevisiae, or any other microbial organism known to those skilled in the art. […]
System 10 includes measuring and detection device 28 connected to electrodes 16 and 18 of control chamber 12 by lines 29 and 31 and electrodes 24 and 26 of target chamber 22 by lines 33 and 35. […] Measuring and detection device 28 then compares the measured second impedances to the measured first impedances to determine if biological reagent 20 has induced any metabolic deviations to biological sample 14 in target chamber 22. […]

CCn1cc(C(=O)O)c(=O)c2cc(F)c(N3CCNCC3)cc21 [Norfloxacin]
time at which sensitivity of the biological sample to the biological reagent is detected (FIG. 7 dashed line 404): about 40 minutes | sensitivity of the biological sample to the biological reagent (measured impedance response vs control sample, FIG. 7 curve 402 vs curve 400): sensitive
